Measurements from article PMC7669869, “AdipoR1/AdipoR2 dual agonist recovers nonalcoholic steatohepatitis and related fibrosis via endoplasmic reticulum-mitochondria axis” (Nature Communications, 2020).
Several values for one entry are separate records, joined by “and”; a condition that tells them apart may be missing. Equal entries are not always repeated. Non-standard residues stand in square brackets, D forms with d. Residues, ends and D or L forms follow the SMILES beside them. Nva = CCC[C@H](N)C(=O)O

What was measured:
[1] = tested on: gene expression in LX2 cells; assay: Quantitative RT-PCR in LX2 cells; type: cell-based, human; design: key to Vimentin mRNA / CTGF mRNA / OPN mRNA / IL-6 mRNA / TNF mRNA / IL-1 mRNA / TIMP2 mRNA / MMP2 mRNA / MMP9 mRNA / MMP12 mRNA / MMP13 mRNA: relative mRNA expression normalized to β-actin
Procedure: Hepatoma carcinoma cell line HepG2 and human hepatic activated stellate cell line LX2 used in this study were purchased from Type Culture Collection of the Chinese Academy of Sciences (Shanghai, China). Cells were cultured in Dulbecco’s modified Eagle’s medium (DMEM) with 10% fetal bovine serum (FBS), supplemented with 1% penicillin–streptomycin (ThermoFisher Scientific, USA) at 37 °C in a humidified atmosphere of 5% CO2. In PA (Sigma, USA) induced lipid accumulation cell model, HepG2 cells were seeded into a 6-well plate at 5E5 cells per well. 0.25 mM PA and/or 200 μM candidate peptides were co-incubated with cells for 24 h. Then Oil Red O staining was performed to evaluate the accumulation of lipid droplets. BSA (Sigma, USA) was used in this experiment as the negative control. For LX2 cells, 2E5 cells were seeded, then the adherent cells were exposed to 200 μM candidate peptides for another 48 h. Next, the cell protein was obtained and western blotting was performed. Candidate peptides were diluted in DMEM in a stock concentration of 1 M.
(§1) Liver total RNA was extracted by using Trizol reagent following the manufacture’s instruction (TransGen Biotech, China). The concentration of RNA was measured by Nanodrop 2000 (ThermoFisher Scientific, USA). cDNA was transcribed from 10ug total RNA with First Strand cDNA synthesis Super Mix (TransGen Biotech, China). The cDNA was diluted 1/50 and 1.0 uL were used as a template for qPCR. qPCR was performed with SYBR Green qPCR Super Mix (TransGen Biotech, China) in the Light Cycler 480 Real-Time PCR System (Roche, Swiss). Reference gene β-actin was used for data normalization. mRNA expression was analyzed with specific primers listed in Supplementary Table 2.

[2] = tested on: liver gene expression of CCl4 induced liver fibrosis mice; assay: CCl4 mice: liver mRNA, quantitative RT-PCR; type: in vivo, mouse; design: key to BAX liver mRNA / BID liver mRNA / UCP2 liver mRNA / DGAT1 liver mRNA / GSTM1 liver mRNA / GPX1 liver mRNA / HO-1 liver mRNA / XBP1 liver mRNA / ATF4 liver mRNA / GRP78 liver mRNA / BIM liver mRNA: mRNA expression normalized to β-actin reference gene; conditions: for BCL2 liver mRNA, relative expression (Apotosis), Supplementary Figure 16 / FAS liver mRNA, relative expression (Apotosis), Supplementary Figure 16: CCl4 + JT003 mice
Procedure: Male mice liver fibrosis was induced by intraperitoneal injection of 20% CCl4 (Sigma, USA) diluted in corn oil (Aladdin, China) every 3 days for 6 weeks (n = 6; 5 ml kg^−1 body weight). Mice injected with equivalent volume of corn oil serves as control group (n = 6). Liver fibrosis mice treated with JT003 for 3 weeks were used to evaluated the pharmacological effects (n = 6; 500 μg kg^−1; daily intraperitoneal injection).
as §1

[3] = tested on: PA induced HepG2 cells; assay: Mitochondrial content assay (MitoTracker), PA induced HepG2; type: cell-based, human; conditions: HepG2, PA + 200 μM JT003; in words
Procedure: 60–70% confluent LX2 cells and PA induced HepG2 cells were washed with PBS twice and incubated with 100 nM MitoTracker Green FM (YeSan, China) at 37 °C for 30 min For fluorescence intensity assay, cells were harvested by using trypsin/EDTA (ThermoFisher Scientific, USA) and resuspended in PBS. The excitation and emission wavelengths were 490 and 516 nm, respectively, and the intensity values corrected for total protein level (mg ml^−1). For mitochondrial visualized assay, after incubated with MitoTracker Green FM, the adherent cells were washed with PBS and a single in-focus optical section was acquired with confocal microscopy (Olympus, Japan). The nucleus was stained with Hochest33342 (ThermoFisher Scientific, USA). For every section n = 50 cells, images were analyzed and quantified by ImageJ.

[4] = Figure 6a left, LX2 cells, JT003 vs Vehicle, single replicates, n = 4
[5] = Figure 6a right, LX2 cells, JT003 vs Vehicle, single replicates, n = 4
[6] = CCl4 fibrosis mice, liver, JT003 500 μg kg−1, in words
[7] = CCl4 mice, liver, JT003 500 μg kg−1, in words
[8] = Figure 7d left, CCl4 + JT003 group, single replicates, n = 6
[9] = Figure 7d right, CCl4 + JT003 group, single replicates, n = 6

Compound: CCC[C@H](NC(=O)[C@@H]1CCCN1)C(=O)N[C@@H](CC(C)C)C(=O)N[C@@H](Cc1ccc(O)cc1)C(=O)N[C@@H](Cc1ccc(O)cc1)C(=O)N[C@@H](Cc1ccccc1)C(=O)N[C@@H](C)C(N)=O [JT003] (H-P[Nva]LYYFA-NH2)
- MMP2 mRNA [1, 4]: 1.293 and 0.7704 and 1.1819 and 1.0719
- MMP9 mRNA [1, 4]: 2.131 and 1.538 and 2.384 and 1.884
- MMP12 mRNA [1, 4]: 1.826 and 1.7 and 2.413 and 1.763
- MMP13 mRNA [1, 4]: 2.514 and 2.381 and 3.247 and 2.347
- TIMP2 mRNA [1, 4]: 0.8037 and 0.8728 and 0.6883 and 0.7883
- CTGF mRNA [1, 5]: 0.7417 and 0.5541 and 0.6479 and 0.621
- IL-1 mRNA [1, 5]: 0.9119 and 0.6477 and 0.5242 and 0.686
- IL-6 mRNA [1, 5]: 0.6335 and 0.6954 and 0.6645 and 0.66
- OPN mRNA [1, 5]: 0.8619 and 0.7815 and 0.9867 and 0.8941
- TNF mRNA [1, 5]: 0.6949 and 0.8263 and 0.7906 and 0.7334
- Vimentin mRNA [1, 5]: 0.6199 and 0.6972 and 0.6586 and 0.5779
- IL-1a mRNA, relative expression, Supplementary Figure 15a ([1]; JT003 vs Vehicle, replicate 1): 0.9119
- IL-6 mRNA, relative expression, Supplementary Figure 15a ([1]; JT003 vs Vehicle, replicate 1): 1.034
- TNFa mRNA, relative expression, Supplementary Figure 15a ([1]; JT003 vs Vehicle, replicate 1): 0.6949
- iNOS mRNA, relative expression, Supplementary Figure 15a ([1]; JT003 vs Vehicle, replicate 1): 1.242
- IL-1a mRNA, relative expression, Supplementary Figure 15a ([1]; JT003 vs Vehicle, replicate 2): 0.5774
- IL-6 mRNA, relative expression, Supplementary Figure 15a ([1]; JT003 vs Vehicle, replicate 2): 0.932
- TNFa mRNA, relative expression, Supplementary Figure 15a ([1]; JT003 vs Vehicle, replicate 2): 0.8263
- iNOS mRNA, relative expression, Supplementary Figure 15a ([1]; JT003 vs Vehicle, replicate 2): 1.188
- IL-1a mRNA, relative expression, Supplementary Figure 15a ([1]; JT003 vs Vehicle, replicate 3): 0.5946
- IL-6 mRNA, relative expression, Supplementary Figure 15a ([1]; JT003 vs Vehicle, replicate 3): 0.9828
- TNFa mRNA, relative expression, Supplementary Figure 15a ([1]; JT003 vs Vehicle, replicate 3): 0.7606
- iNOS mRNA, relative expression, Supplementary Figure 15a ([1]; JT003 vs Vehicle, replicate 3): 0.8438
- IL-1a mRNA, relative expression, Supplementary Figure 15a ([1]; JT003 vs Vehicle, replicate 4): 0.706
- IL-6 mRNA, relative expression, Supplementary Figure 15a ([1]; JT003 vs Vehicle, replicate 4): 0.9774
- TNFa mRNA, relative expression, Supplementary Figure 15a ([1]; JT003 vs Vehicle, replicate 4): 0.7834
- iNOS mRNA, relative expression, Supplementary Figure 15a ([1]; JT003 vs Vehicle, replicate 4): 0.9516
- HSC activation factors (Vimentin, CTGF, OPN, IL-6, TNFα and IL-1α) ([1]; LX2, 200 μM JT003, in words): significantly suppressed
- expression of ER-mitochondrial function-related markers ([1]; LX2, 200 μM JT003, in words): improved
- expression of genes involved in ECM accumulation (TIMP1) and degradation (MMP9, MMP12, MMP13) ([1]; LX2, 200 μM JT003, in words): notably altered
- inflammation related genes (TNFα, IL-1α, IL-6 and iNOS) ([1]; LX2, 200 μM JT003, in words): suppressed
- BCL2 liver mRNA, relative expression (Apotosis), Supplementary Figure 16 ([2]; replicate 1): 19.1929
- FAS liver mRNA, relative expression (Apotosis), Supplementary Figure 16 ([2]; replicate 1): 0.7337
- BCL2 liver mRNA, relative expression (Apotosis), Supplementary Figure 16 ([2]; replicate 2): 9.563
- FAS liver mRNA, relative expression (Apotosis), Supplementary Figure 16 ([2]; replicate 2): 0.7492
- BCL2 liver mRNA, relative expression (Apotosis), Supplementary Figure 16 ([2]; replicate 3): 15.2158
- FAS liver mRNA, relative expression (Apotosis), Supplementary Figure 16 ([2]; replicate 3): 0.6522
- BCL2 liver mRNA, relative expression (Apotosis), Supplementary Figure 16 ([2]; replicate 4): 10.7592
- FAS liver mRNA, relative expression (Apotosis), Supplementary Figure 16 ([2]; replicate 4): 0.5898
- TGFβ, CTGF, IL-6, TNFα and IL-1β (HSCs activation) [2, 6]: all suppressed
- expression of genes related to ECM accumulation (TIMP1, MMP3 and MMP8) [2, 6]: decreased
- genes involved in ECM elimination (MMP2, MMP9 and MMP13) [2, 6]: notably upregulated
- ER-Stress related genes (XBP1, ATF4, GRP78 and BIM) ([2]; CCl4 induced fibrosis mice, liver, JT003 500 μg kg−1, in words): remarkably suppressed
- anti-apoptotic BCL2 (RT-PCR) [2, 7]: significantly improved
- apoptosis-related FAS (RT-PCR) [2, 7]: reduced
- ATF4 liver mRNA [2, 8]: 1.16 and 0.7959 and 1.086 (2×) and 0.9357 and 1.157
- BIM liver mRNA [2, 8]: 0.2472 and 0.8351 and 0.6258 and 0.6305 and 0.5305 and 0.5258
- GRP78 liver mRNA [2, 8]: 0.8253 and 1.201 and 1.072 (2×) and 0.9986 and 0.797
- XBP1 liver mRNA [2, 8]: 2.911 and 0.8961 and 1.2156 (2×) and 1.656 and 1.136
- DGAT1 liver mRNA ([2]; Figure 7d right, CCl4 + JT003 group, single replicates, 5 values): 0.8433 and 1.099 and 1.191 and 0.9141 and 2.738
- BAX liver mRNA [2, 9]: 1.955 and 0.8137 and 1.744 and 0.6724 and 1.0479 and 1.373
- BID liver mRNA [2, 9]: 1.296 and 0.8034 and 0.6436 and 0.8394 and 0.9828 and 0.9284
- GPX1 liver mRNA [2, 9]: 0.4793 and 0.5322 and 0.6634 and 0.7144 and 0.5138 and 0.7293
- GSTM1 liver mRNA [2, 9]: 0.3771 and 0.1875 and 0.195 and 1.014 and 0.3719 and 0.9044
- HO-1 liver mRNA [2, 9]: 1.179 and 1.19 and 1.314 and 1.134 and 1.372 and 1.274
- PGC1a liver mRNA [2, 9]: 1.328 and 1.046 and 1.167 and 1.184 and 1.337 and 1.083
- PGC1b liver mRNA [2, 9]: 1.159 and 2.677 and 4.191 and 3.928 and 2.638 and 2.374
- UCP2 liver mRNA [2, 9]: 0.9325 and 1.681 and 1.172 and 0.7627 and 0.8293 and 0.6383
- mitochondrial content / biogenesis in PA induced HepG2 [3]: mitochondrial biogenesis was improved
